Test results from paper PMC6469168, “Localization of ^99mTc-GRP Analogs in GRPR-Expressing Tumors: Effects of Peptide Length and Neprilysin Inhibition on Biological Responses” (Pharmaceuticals, 2019).
Where two headings read alike, the source gives them in different places. Each block holds one compound with its values, some of them ahead of it. Where no end group is shown, it is not given here. The star is where a group is joined. DOTA = O=C(O)CN1CCN(CC(=O)O)CCN(CC(=O)*)CCN(CC(=O)O)CC1; N4 = tetraamine chelator for 99mTc

Experiments:
[1] = molecular target: T1, NMBR in human ileal carcinoids (Homo sapiens, UniProt P28336); conditions: receptor autoradiography, human ileal carcinoid sections; mean, n = 2; read-out: IC50s in nM, NMBR; cited from earlier work
T1 construct: from tissue; host or cells: human ileal carcinoid cryostat sections
T1 sequence (P28336 whole entry): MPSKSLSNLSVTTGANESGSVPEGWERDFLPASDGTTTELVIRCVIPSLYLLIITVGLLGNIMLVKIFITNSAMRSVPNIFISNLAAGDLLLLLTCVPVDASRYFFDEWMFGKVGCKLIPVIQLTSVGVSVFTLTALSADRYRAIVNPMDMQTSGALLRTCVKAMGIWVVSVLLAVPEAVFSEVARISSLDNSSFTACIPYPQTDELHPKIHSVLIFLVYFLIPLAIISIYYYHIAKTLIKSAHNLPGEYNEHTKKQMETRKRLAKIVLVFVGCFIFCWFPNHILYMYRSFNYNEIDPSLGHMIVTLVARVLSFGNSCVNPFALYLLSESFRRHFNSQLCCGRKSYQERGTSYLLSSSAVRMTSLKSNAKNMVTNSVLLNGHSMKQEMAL
Excerpt: (§1) Table 1 Affinities for the three human bombesin receptor subtypes. | column: IC50s in nM / NMBR ^2 || The selective affinities of N4-GRP(14–27) for each of the three bombesin receptor subtypes found in mammals were studied during in vitro competition binding assays against the universal radioligand ^125I-[DTyr^6,βAla^11,Phe^13,Nle^14]BBN(6–14). Receptor autoradiography was applied in cryostat sections of well characterized human cancers, preferentially expressing one of the subtypes.

[2] = molecular target: T2, BB3R in human lung (bronchial) carcinoids (Homo sapiens, UniProt P32247); experiment: Receptor autoradiography competition binding vs ^125I-[DTyr^6,βAla^11,Phe^13,Nle^14]BBN(6–14) in human tumor sections; conditions: human lung (bronchial) carcinoid sections, same universal radioligand, mean ± SEM, n in parentheses, read-out: IC50s in nM, BB3R
T2 construct: from tissue; host or cells: human bronchial carcinoid cryostat sections
T2 sequence (P32247 1-399): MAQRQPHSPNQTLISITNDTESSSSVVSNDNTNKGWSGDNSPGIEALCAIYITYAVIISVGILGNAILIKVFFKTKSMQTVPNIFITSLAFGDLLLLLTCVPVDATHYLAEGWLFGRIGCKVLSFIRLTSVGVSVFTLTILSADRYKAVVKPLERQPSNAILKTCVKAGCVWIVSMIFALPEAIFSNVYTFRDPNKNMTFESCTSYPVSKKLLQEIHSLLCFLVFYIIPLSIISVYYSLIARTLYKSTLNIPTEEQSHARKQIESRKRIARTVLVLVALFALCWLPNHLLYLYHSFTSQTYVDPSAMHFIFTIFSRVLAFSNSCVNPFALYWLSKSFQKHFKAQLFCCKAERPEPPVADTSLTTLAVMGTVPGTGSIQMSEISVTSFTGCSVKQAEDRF
Description: IC50 values are given in nM ± SEM.

[3] = molecular target: T3, GRPR-sites on PC-3 cell membranes (Homo sapiens, UniProt P30550); experiment: Competition binding against [^125I-Tyr^4]BBN in PC-3 cell membranes; conditions: 1 h at 22 °C, 50 pM radioligand, triplicates per concentration, read-out: IC50, [^125I-Tyr^4]BBN displacement from GRPR-sites
T3 construct: PC-3 cells endogenously expressing the human GRPR; host or cells: PC-3 cell-membrane homogenates
T3 sequence (P30550 whole entry): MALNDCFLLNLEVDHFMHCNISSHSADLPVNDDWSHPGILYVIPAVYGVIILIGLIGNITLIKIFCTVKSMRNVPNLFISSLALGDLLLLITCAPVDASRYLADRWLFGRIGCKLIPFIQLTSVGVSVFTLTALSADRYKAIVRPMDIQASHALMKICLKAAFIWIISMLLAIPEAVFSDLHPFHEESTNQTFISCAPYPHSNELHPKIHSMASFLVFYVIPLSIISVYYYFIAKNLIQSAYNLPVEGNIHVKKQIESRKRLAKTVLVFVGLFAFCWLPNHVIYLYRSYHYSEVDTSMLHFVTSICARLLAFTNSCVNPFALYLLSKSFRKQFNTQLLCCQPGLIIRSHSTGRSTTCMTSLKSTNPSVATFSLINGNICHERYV
Description: Moreover, coupling of the positively charged acyclic tetraamine unit in the N-terminus of parent GRP(14/18–27) references improved the affinity of resulting analogs to the GRPR, as previously reported for similarly modified peptide analogs.
(b) GRPR-specific internalization of ^99mTc-N4-GRP(14–27) (red solid line) and ^99mTc-N4-GRP(18–27) (blue solid line) in PC-3 cells during incubation at 37 °C at 15, 30, 60, and 120 min. Results represent average of cell internalized activity ± sd, n = 3; data is corrected for nonspecific internalization in the presence of 1 µM [Tyr^4]BBN.
Competition binding experiments against [^125I-Tyr^4] […] For the assay, triplicates per concentration point (concentration range: 10^−13–10^−6 M) of each test peptide were incubated together with the radioligand (~40,000 cpm per assay tube at a 50 pM concentration) in PC-3 cell-membrane homogenates in a total volume of 300 μL binding buffer (BB, 50 mM HEPES pH 7.4, 1% BSA, 5.5 mM MgCl2, 35 μM bacitracin) for 1 h at 22 °C in an Incubator-Orbital Shaker (MPM Instr. SrI, Bernareggio, Italy). Binding was interrupted by ice-cold washing buffer (WB, 10 mM HEPES pH 7.4, 150 mM NaCl) and rapid filtration (Whatman GF/B filters presoaked in BB) on a Brandel Cell Harvester (Adi Hassel Ing. Büro, Munich, Germany). Filters were washed with ice-cold WB and counted in an automatic well-type gamma counter (NaI(Tl) 3′-crystal, Cobra Packard Auto-Gamma 5000 series instrument). The IC50 values were calculated using nonlinear regression according to a one-site model applying the PRISM 2 program (Graph Pad Software, San Diego, CA, USA).

[4] = test system: PC-3 cells; experiment: Internalization assay in PC-3 cells; format: cell-based, human; conditions: 37 °C, corrected for nonspecific (1 µM [Tyr^4]BBN), average ± sd, n = 3
Description: In both cases the bulk of cell-associated radioactivity was found in the cells with ^99mTc-N4-GRP(14–27) internalizing much faster in PC-3 cells compared to ^99mTc-N4-GRP(18–27) at all time intervals (Figure 3b).
The internalization rates of ^99mTc-N4-GRP(14–27) and ^99mTc-N4-GRP(18–27) were compared in PC-3 cells. Briefly, PC-3 cells were seeded in six-well plates (~1 × 10^6 cells per well) 24 h before the experiment. Approximately 50,000 cpm of either ^99mTc-N4-GRP(14–27) or ^99mTc-N4-GRP(18–27) (corresponding to 250 fmol total peptide in 150 μL of 0.5% BSA/PBS) was added alone (total) or in the presence of 1 μM [Tyr^4]BBN (nonspecific). Cells were incubated at 37 °C for 15, 30, 60, and 120 min and incubation was interrupted each time by placing the plates on ice, removing the supernatants and rapid rinsing with ice-cold 0.5% BSA/PBS. Cells were then treated 2 × 5 min with acid wash buffer (2 × 0.6 mL, 50 mM glycine buffer pH 2.8, 0.1 M NaCl) at room temperature and supernatants were collected (membrane-bound fraction). After rinsing with 1 mL chilled 0.5% BSA/PBS, cells were lysed by treatment with 1 N NaOH (2 × 0.6 mL) and lysates were collected (internalized fraction). Sample radioactivity was measured in the γ-counter and percent internalized radioactivity was determined vs. total added activity. Results represent the average values ± sd of three experiments performed in triplicate.

[5] = test system: GRPR; conditions: DOTA-derivatized analogs; read-out: IC50, GRPR binding affinity; cited from earlier work
Excerpt: It is interesting to note that the presence of the positively charged N4^+x-moiety at positions 13 and 17 of the native GRP chain occupy the two basic amino acids Lys^13 and Arg^17.

[6] = molecular target: T2, BB3R in human lung (bronchial) carcinoids; conditions: receptor autoradiography, human lung carcinoid sections; read-out: IC50s in nM, BB3R; cited from earlier work
Excerpt: Receptor autoradiography was applied in cryostat sections of well characterized human cancers, preferentially expressing one of the subtypes.

[7] = molecular target: T4, GRPR expressed in human prostate cancer (Homo sapiens, UniProt P30550); conditions: receptor autoradiography, human prostate cancer sections; mean, n = 2; read-out: IC50s in nM, GRPR; cited from earlier work
T4 construct: from tissue; host or cells: human prostate carcinoma cryostat sections
T4 sequence (P30550 whole entry): as above
Excerpt: as §1, with “GRPR ^1” for “NMBR ^2”

Compound: N4-[Pro^1,Tyr^4]BBN (PQRYGNQWAVGHLM; not fully specified (N-terminus); ends and bridges not checked) [Demobesin 3, tetraamine derivatized BBN-like analog]
IC50 [1]: 1.6 nM

IC50 [3]: 0.32 ± 0.03 nM
Compound: CSCC[C@H](NC(=O)[C@H](CC(C)C)NC(=O)[C@H](Cc1c[nH]cn1)NC(=O)CNC(=O)[C@@H](NC(=O)[C@H](C)NC(=O)[C@H](Cc1c[nH]c2ccccc12)NC(=O)[C@H](Cc1c[nH]cn1)NC(=O)[C@H](CC(N)=O)NC(=O)CNC(=O)[C@H](CCCNC(=N)N)NC(=O)[C@@H]1CCCN1C(=O)[C@H](Cc1ccc(O)cc1)NC(=O)[C@H](CCSC)NC(=O)C(CNCCN)CNCCN)C(C)C)C(N)=O [N4-GRP(14–27)]
IC50 [2]: > 1000 nM

Compound: ^99mTc-N4-GRP(18–27): ^99mTc-labeled N4-GRP(18–27) radioligand (N4-GNHWAVGHLM-NH2; ends and bridges not checked; also: 99mTc complex at N4; UniProt P07492 41-50, looked up, fragment)
specifically internalized, % of total added activity ([4]; 1 h): 5.0 ± 0.3%
specifically internalized, % of total added activity ([4]; 2 h): 6.9 ± 1.5%

Compound: DOTA-GRP(18–27): GRP(18–27) coupled to DOTA, previously reported
IC50 [5]: 112 ± 16 nM

Compound: DOTA-GRP(14–27): GRP(14–27) coupled to DOTA, previously reported ({DOTA}-MYPRGNHWAVGHLM-NH2; ends and bridges not checked; UniProt P07492 37-50, looked up, fragment)
IC50 [5]: 6.6 ± 0.9 nM

IC50 [3]: 1.66 ± 0.2 nM
Compound: CSCC[C@H](NC(=O)[C@H](CC(C)C)NC(=O)[C@H](Cc1cnc[nH]1)NC(=O)CNC(=O)[C@@H](NC(=O)[C@H](C)NC(=O)[C@H](Cc1c[nH]c2ccccc12)NC(=O)[C@H](Cc1cnc[nH]1)NC(=O)[C@H](CC(N)=O)NC(=O)CN)C(C)C)C(N)=O [GRP(18–27), H-Gly-Asn-His-Trp-Ala- Val-Gly-His-Leu-Met-NH2]

IC50 [3]: 0.63 ± 0.06 nM
Compound: CSCC[C@H](NC(=O)[C@H](CC(C)C)NC(=O)[C@H](Cc1c[nH]cn1)NC(=O)CNC(=O)[C@@H](NC(=O)[C@H](C)NC(=O)[C@H](Cc1c[nH]c2ccccc12)NC(=O)[C@H](Cc1c[nH]cn1)NC(=O)[C@H](CC(N)=O)NC(=O)CNC(=O)C(CNCCN)CNCCN)C(C)C)C(N)=O [N4-GRP(18–27)]

Compound: N4-[Pro^1,Tyr^4]BBN (PQRYGNQWAVGHLM) [Demobesin 3, tetraamine derivatized BBN-like analog]
IC50 [6]: > 100 nM
IC50 [7]: 0.5 nM

Compound: ^99mTc-N4-GRP(14–27): ^99mTc-labeled N4-GRP(14–27) radioligand (N4-MYPRGNHWAVGHLM-NH2; ends and bridges not checked; also: 99mTc complex at N4; UniProt P07492 37-50, looked up, fragment)
specifically internalized, % of total added activity ([4]; 1 h): 12.7 ± 0.7%
specifically internalized, % of total added activity ([4]; 2 h): 19.5 ± 1.4%

IC50 [3]: 0.45 ± 0.02 nM
Compound: CSCC[C@H](NC(=O)[C@H](CC(C)C)NC(=O)[C@H](Cc1c[nH]cn1)NC(=O)CNC(=O)[C@@H](NC(=O)[C@H](C)NC(=O)[C@H](Cc1c[nH]c2ccccc12)NC(=O)[C@H](Cc1c[nH]cn1)NC(=O)[C@H](CC(N)=O)NC(=O)CNC(=O)[C@H](CCCNC(=N)N)NC(=O)[C@@H]1CCCN1C(=O)[C@H](Cc1ccc(O)cc1)NC(=O)[C@@H](N)CCSC)C(C)C)C(N)=O [GRP(14–27)]
